Data taken from patent publication US20040034201A1, “Enhanced affinity hyaluronan binding peptides” (priority 1997, published 2004).
Read-outs that look alike come from different tables or passages of the source. Each block holds one molecule with its values, some of them ahead of it.

Assays:
10T1/2 fibroblasts = experiment: Cell proliferation in response to serum (hemocytometer counts); type: cell-based; details: 100 ug/mL peptide or PD98059 50 ug/mL, 48 h
Experimental: 10T1/2 fibroblasts were grown to semi-confluence and were incubated with enhanced affinity hyaluronan binding peptide (shown in SEQ.ID.NO.:3) at a concentration of 100 ug/mL for 48 h. The cells were then trypsinized in 0.12% trypsin and counted using a hematocytometer. Released cells were stained with trypan blue and only viable cells were counted.

[1] = test system: Ras-transformed 10T1/2 fibroblasts; experiment: Apoptosis (Hoechst dye positive nuclei); type: cell-based; details: 100 ug/mL peptide or PD98059 50 ug/mL; 48 h
Experimental: Ras-transformed 10T1/2 fibroblasts were grown to sub-confluence and were incubated with enhanced affinity hyaluronan binding peptide (shown in SEQ.ID.NO.:3) at a concentration of 100 ug/mL for 48 h. The cells were then stained with Hoechst dye using standard procedures and the percentage of apoptotic cells were determined by detection of positive stain in the nucleus of randomly selected cells.

[2] = peptide of WO 93/21312 with carboxy-terminal histidine; cited from earlier work
[3] = HA binding of biotinylated peptides on HA-derivatized ELISA plates
Experimental: A 15-mer phage display library was obtained from Chiron Inc. (CA). Hyaluronan (HA) was biotinylated and mixed with streptavidin-sepharose (Sigma) and washed. The Biotinylated HA was incubated with the phage library, then recovered with streptavidin-sepharose. The phage biotinylated HA-streptavidin -sepharose mixture was washed 4 times with phosphate buffered saline (PBS) and recovered phage were plated on a bacteria lawn in petri dishes. Clones were isolated and assessed for their ability to bind to HA. For the first screen, a total 75 clones were obtained after 4 cycles of screening. To assess the specificity of binding of these clones to HA, two approaches were taken. In the first, the ability of the clones to bind to biotin-sepharose or to streptavidin-sepharose were assessed. Clones were recovered from the bacteria lawn and mixed with biotin-sepharose and streptavidin-sepharose. Sepharose beads were washed 4 times with PBS and plated onto a bacteria lawn. In the second assay, clones were mixed with excess (100 ug/mL) HA (mean molecular weight: 700,000 daltons (Hyal, Ontario, Canada) together with biotinylated HA. After mixing the biotinylated HA was recovered with streptavidin-sepharose, washed as above and plated onto a bacteria lawn. Clones were sequenced in an automatic sequencer. A schematic diagram illustrating the isolation of enhanced affinity hyaluronan binding peptides from the 15-mer phage display library is shown in FIG. 1.
Enhanced affinity HA binding peptides mimicking sequences obtained from the phage display library and scrambled peptides prepared from these sequences were tested for their HA binding properties. HA was derivatized to NUNC ELISA plates and biotinylated peptides were added to the plates and incubated for 2 h at room temperature. Plates were washed 4 times with PBS and then incubated with streptavidin-peroxidase for 1 h, washed, developed with hydrogen peroxide and their optical densities were determined. Controls were conducted using BSA-coated ELISA wells.

[4] = test system: Fibroblast (ras transformed); experiment: Random locomotion by image analysis, ras-transformed 10T1/2 fibroblasts on fibronectin; type: cell-based
Experimental: (§1) Ras-transformed 10T1/2 or parental 10T1/2 fibroblasts (Egan, S. E. et al., Science 238: 202-205, 1987; Hardwick, C. et al., J. Biol. Chem. 117: 1343-1350, 1992) were cultured in DMEM containing 10% fetal bovine serum (FBS) and maintained in 5% CO2 humidified atmospheric condition. Every second passage, cells were maintained in 600 ug/mL G418 for one passage to select for maintenance of the mutant active ras-geneticin construct in cells. Cells were passaged at confluence and utilized under 20 passages. Macrophages were obtained from lung lavage 1 h after bleomycin insertion (Gelzleichter, T. R. et al., Fund. Appl. Toxicol. 30: 39-46, 1996) and used immediately in assays. Neutrophils were obtained from human blood as described and used immediately.
(§2) For routine analysis of random locomotion, 10T1/2 fibroblasts or leukocytes were subcultured into culture flasks coated with 20 ug/mL fibronectin and maintained in DMEM plus 10% FBS for 24-48 h. The enhanced affinity hyaluronan binding peptide (shown in SEQ.ID.NO.:3) or scrambled peptides were incubated with the cultures at concentrations of 50 ng to 1 ug per mL. […] Filming was conducted for up to 24 h with images recorded every 20 min.

Alveolar macrophages = experiment: Random locomotion by image analysis, alveolar macrophages; type: cell-based; details: nuclear displacement by image analysis, n = 100 cells
Experimental: as §1, §2

Human neutrophils = experiment: Chemotaxis in Boyden chamber, human neutrophils to IL-8; type: cell-based; details: MTT blue, n = 3 replicates, the values are: MTT absorbance (chemotaxis)
Experimental: as §1
(§3) To assess the effects of enhanced affinity hyaluronan binding peptides and scrambled peptides on chemotaxis, a modified multi-well boyden chamber was utilized as described by Shi, Y. et al. (J. Immunol. Methods 164: 149-154, 1993).

Rat alveolar macrophages = experiment: Chemotaxis in Boyden chamber, rat alveolar macrophages to C5a; type: cell-based; details: MTT blue, n = 3 replicates, the values are: MTT absorbance (chemotaxis)
Experimental: as §1, §3

S1 macrophage cell line = experiment: Chemotaxis in Boyden chamber, S1 macrophage cell line to C5a; type: cell-based; details: MTT blue, n = 3 replicates, the values are: MTT absorbance (chemotaxis)
Excerpt: as §3

punch biopsy wound = experiment: Rat punch biopsy model of skin repair; type: in vivo
Experimental: Three-month-old female Fischer rats were anesthesized and subjected to […] full thickness punch biopsies. Wounds were filled with a sterile solution of 1% collagen type 1 gel containing either PBS alone, HA binding peptide (shown in SEQ.ID.NO.:3) (20 mg/mL) or scrambled peptide (20 mg/mL) that contained the same amino acids as the HA binding peptide but in a random order. 100 uL of the collagen solution was applied to the punch biopsy wound and allowed to gel over 20 min. The wounds were then covered with a protective plastic shield that was sewn into the skin. Wounds were recovered from euthenized rats with a 9 mm punch biopsy.
Recovered punch biopsies were extracted with RIPA buffer and total protein was determined with a Biorad protein assay. Protein (50 ug) was loaded onto each lane and proteins were separated by electrophoresis on SDS-PAGE. Separated proteins were transferred to a nitrocellulose blot and the blot was processed for reactivity to anti-RHAMM antisera or anti-CD44 antibody (Dillon, P. W. et al., J. Surg. Res. 57: 170-173, 1994).
Messenger RNA was isolated by Micro-FastTrack Kit (Invitrogen, San Diego, Calif.). The quality of RNA samples was confirmed by denaturing gel electrophoresis. Reverse transcription was performed by using First Strand cDNA Synthesis kit (Clontech, Polo Alco, Calif.). Briefly, 0.2 ug of mRNA was used to generate cDNA using oligo(dT) 18 primer. Samples containing 0.2 ug of mRNA per time point was heat-denatured in DEPC-treated water for 2 min at 70° C. and incubated at 42° C. for 1 h in a total volume of 20 uL of 20 pmol primers, 0.5 mM of each dNTP, 1 unit/uL of RNase inhibitor and 200 units/ug RNA of MMLV. The reaction was stopped by heating at 94° C. for 5 min and to destroy any DNase activity. The reaction mixture was diluted to a final volume of 100 uL and aliquots were stored at −80° C. until further use.
To distinguish between amplication of genomic DNA and complementary DNA, the primer pairs were designed to enclose at least one intron on the genomic sequences of RHAMM and beta-actin. […]

Molecule: COc1cccc(-c2cc(=O)c3ccccc3o2)c1N [PD98059, reference compound]
Number of Cells (×10^6) (10T1/2 fibroblasts): 0.5 ± 0.1 ×10^6 | % Hoechst Positive Nuclei [1]: 40 ± 2.5%

Molecule: KLRSQLVHHH
ability to bind HA [2]: unable to bind to HA

ability to bind HA [3]: can bind to HA
Molecule: STMMSRSHKTRSCHH

ability to bind HA [3]: can bind to HA
Molecule: STMMSRSHKTRSHH
Concentrations optimal for inhibiting cell motility ([4]; 10T1/2 fibroblasts or leukocytes, tested 50 ng to 1 ug per mL): 50 to 100 ng/mL | Rate of Locomotion, random locomotion ([4]; Fibroblast (ras transformed), nuclear displacement by image analysis, n = 100 cells): 10.83 ± 1.07 um/h | Rate of Locomotion, random locomotion (Alveolar macrophages): 3.24 ± 0.53 um/h | Rate of Locomotion, chemotaxis (Human neutrophils): 0.088 ± 0.009 | Rate of Locomotion, chemotaxis (Rat alveolar macrophages): 0.425 ± 0.028 | Rate of Locomotion, chemotaxis (S1 macrophage cell line): 0.238 ± 0.014 | Number of Cells (×10^6) (10T1/2 fibroblasts): 2.4 ± 0.2 ×10^6 | % Hoechst Positive Nuclei [1]: 4.9 ± 0.9% | HA accumulation within the remodelling dermal layer (punch biopsy wound; at 24 h, biotinylated aggrecan staining): increase in HA accumulation | keratinocyte resurfacing of the wound (re-epithelialization) (punch biopsy wound; rat, applied in collagen gel to the wound, 24 h after injury): inhibited keratinocyte resurfacing of the wound | number of fibroblasts at the wound site (punch biopsy wound; rat, peptide 20 mg/mL in collagen gel): reduced the number of fibroblasts

ability to bind HA [3]: Enhanced affinity binding
Molecule: STMMSRSHKTRSHHV [peptide of the Formula III with a valine residue at the C-terminal]

ability to bind HA [3]: Enhanced affinity binding
Molecule: TMTRPHFHKRQLVLS
